# Earlier results as cited in paper PMC8522729 (Antimicrobial Agents and Chemotherapy, 2021).
# System: M. tuberculosis
# Conditions: cited from earlier work
compound,measurement,value
O=C1CCc2c(OC[C@]3(O)CCN(c4c(F)cc(Cl)cc4F)C[C@H]3O)ccc(F)c2N1 [OPC-167832],frequency of resistance,< 1.9 × 10^−7
